ChEMBL document CHEMBL1255543, “On resin amino acid side chain attachment strategy for the head to tail synthesis of new glutamine containing gramicidin-S analogs and their antimicrobial activity” (2010)
Converted amounts (≈) assume the structure as drawn. Peptide text beside a SMILES is read from it.

Columns and labels:
Format in all cases: functional
[1] = tested on: Streptococcus agalactiae; experiment: Antimicrobial activity against Streptococcus agalactiae COH1 by broth microdilution assay
[2] = tested on: Enterococcus faecalis; experiment: Antimicrobial activity against Enterococcus faecalis ATCC 51299 by broth microdilution assay
[3] = tested on: Escherichia coli; experiment: Antimicrobial activity against Escherichia coli ATCC 25922 by broth microdilution assay
[4] = tested on: Staphylococcus aureus; experiment: Antimicrobial activity against methicillin-resistant Staphylococcus aureus ATCC 33591 by broth microdilution assay
[5] = tested on: Streptococcus pyogenes; experiment: Antimicrobial activity against Streptococcus pyogenes by broth microdilution assay
[6] = tested on: Pseudomonas aeruginosa; experiment: Antimicrobial activity against Pseudomonas aeruginosa ATCC 27853 by broth microdilution assay
[7] = Streptococcus pyogenes, read-out: MIC

SMILES	MIC [1]	MIC [2]	MIC [3]	MIC [4]	MIC [5, 7]	MIC [6]	MIC [5]
CC(C)C[C@@H]1NC(=O)[C@H](CCC(N)=O)NC(=O)[C@H](C(C)C)NC(=O)[C@@H]2CCCN2C(=O)[C@@H](Cc2ccc(O)cc2)NC(=O)[C@H](CC(C)C)NC(=O)[C@H](CCC(N)=O)NC(=O)[C@H](C(C)C)NC(=O)[C@@H]2CCCN2C(=O)[C@@H](Cc2ccc(O)cc2)NC1=O	> 100 µg/mL	> 100 µg/mL	> 100 µg/mL	> 100 µg/mL	> 100 µg/mL	> 100 µg/mL	–
CC(C)C[C@@H]1NC(=O)[C@H](CCC(N)=O)NC(=O)[C@H](C(C)C)NC(=O)[C@@H]2CCCN2C(=O)[C@@H](Cc2c[nH]c3ccccc23)NC(=O)[C@H](CC(C)C)NC(=O)[C@H](CCC(N)=O)NC(=O)[C@H](C(C)C)NC(=O)[C@@H]2CCCN2C(=O)[C@@H](Cc2c[nH]c3ccccc23)NC1=O	> 100 µg/mL	> 100 µg/mL	> 100 µg/mL	> 100 µg/mL	> 100 µg/mL	> 100 µg/mL	–
CC(C)C[C@@H]1NC(=O)[C@H](CCC(N)=O)NC(=O)[C@H](C(C)C)NC(=O)[C@@H]2CCCN2C(=O)[C@@H](c2ccccc2)NC(=O)[C@H](CC(C)C)NC(=O)[C@H](CCC(N)=O)NC(=O)[C@H](C(C)C)NC(=O)[C@@H]2CCCN2C(=O)[C@@H](c2ccccc2)NC1=O	> 100 µg/mL	> 100 µg/mL	> 100 µg/mL	> 100 µg/mL	10 µg/mL (≈ 8.76 µM)	> 100 µg/mL	–
CC(C)C[C@@H]1NC(=O)[C@H](CCC(N)=O)NC(=O)[C@H](C(C)C)NC(=O)[C@@H]2CCCN2C(=O)[C@@H](Cc2cccs2)NC(=O)[C@H](CC(C)C)NC(=O)[C@H](CCC(N)=O)NC(=O)[C@H](C(C)C)NC(=O)[C@@H]2CCCN2C(=O)[C@@H](Cc2cccs2)NC1=O	> 100 µg/mL	> 100 µg/mL	> 100 µg/mL	> 100 µg/mL	> 100 µg/mL	> 100 µg/mL	–
CC(C)C[C@@H]1NC(=O)[C@H](CCC(N)=O)NC(=O)[C@H](C(C)C)NC(=O)[C@@H]2CCCN2C(=O)[C@@H](Cc2ccc(F)cc2)NC(=O)[C@H](CC(C)C)NC(=O)[C@H](CCC(N)=O)NC(=O)[C@H](C(C)C)NC(=O)[C@@H]2CCCN2C(=O)[C@@H](Cc2ccc(F)cc2)NC1=O	> 100 µg/mL	> 100 µg/mL	> 100 µg/mL	> 100 µg/mL	10 µg/mL (≈ 8.3 µM)	> 100 µg/mL	–
CC(C)C[C@@H]1NC(=O)[C@H](CCC(N)=O)NC(=O)[C@H](C(C)C)NC(=O)[C@@H]2CCCN2C(=O)[C@@H](Cc2ccc(I)cc2)NC(=O)[C@H](CC(C)C)NC(=O)[C@H](CCC(N)=O)NC(=O)[C@H](C(C)C)NC(=O)[C@@H]2CCCN2C(=O)[C@@H](Cc2ccc(I)cc2)NC1=O	> 100 µg/mL	> 100 µg/mL	> 100 µg/mL	> 100 µg/mL	10 µg/mL (≈ 7.04 µM)	> 100 µg/mL	–
CC(C)C[C@@H]1NC(=O)[C@H](CCC(N)=O)NC(=O)[C@H](CC(C)C)NC(=O)[C@@H]2CCCN2C(=O)[C@H](Cc2ccccc2)NC(=O)[C@H](CC(C)C)NC(=O)[C@H](CCC(N)=O)NC(=O)[C@H](CC(C)C)NC(=O)[C@@H]2CCCN2C(=O)[C@H](Cc2ccccc2)NC1=O (cyclo(FPLQLFPLQL))	> 100 µg/mL	> 100 µg/mL	> 100 µg/mL	> 100 µg/mL	10 µg/mL (≈ 8.35 µM)	> 100 µg/mL	–
CC(C)C[C@@H]1NC(=O)[C@H](CCC(N)=O)NC(=O)[C@H](CC(C)C)NC(=O)[C@@H]2CCCN2C(=O)[C@H](Cc2ccccc2)NC(=O)[C@H](C(C)C)NC(=O)[C@H](CCC(N)=O)NC(=O)[C@H](CC(C)C)NC(=O)[C@@H]2CCCN2C(=O)[C@H](Cc2ccccc2)NC1=O (cyclo(FPLQLFPLQV))	10 µg/mL (≈ 8.45 µM)	> 100 µg/mL	> 100 µg/mL	> 100 µg/mL	10 µg/mL (≈ 8.45 µM)	> 100 µg/mL	–
CC(C)C[C@@H]1NC(=O)[C@H](CCC(N)=O)NC(=O)[C@H](CC(C)C)NC(=O)[C@@H]2CCCN2C(=O)[C@H](Cc2ccccc2)NC(=O)[C@H](C(C)C)NC(=O)[C@H](CCC(N)=O)NC(=O)[C@H](C(C)C)NC(=O)[C@@H]2CCCN2C(=O)[C@H](Cc2ccccc2)NC1=O (cyclo(FPLQLFPVQV))	> 100 µg/mL	> 100 µg/mL	> 100 µg/mL	> 100 µg/mL	10 µg/mL (≈ 8.55 µM)	> 100 µg/mL	–
CC(C)C[C@@H]1NC(=O)[C@H](CCC(N)=O)NC(=O)[C@H](C(C)C)NC(=O)[C@@H]2CCCN2C(=O)[C@H](Cc2ccccc2)NC(=O)[C@H](C(C)C)NC(=O)[C@H](CCC(N)=O)NC(=O)[C@H](CC(C)C)NC(=O)[C@@H]2CCCN2C(=O)[C@H](Cc2ccccc2)NC1=O (cyclo(FPLQVFPVQL))	> 100 µg/mL	> 100 µg/mL	> 100 µg/mL	> 100 µg/mL	10 µg/mL (≈ 8.55 µM)	> 100 µg/mL	–
CC(C)C[C@@H]1NC(=O)[C@H](CCC(N)=O)NC(=O)[C@H](C(C)C)NC(=O)[C@@H]2CCCN2C(=O)[C@H](Cc2ccccc2)NC(=O)[C@H](CC(C)C)NC(=O)[C@H](CCC(N)=O)NC(=O)[C@H](C(C)C)NC(=O)[C@@H]2CCCN2C(=O)[C@H](Cc2ccccc2)NC1=O (cyclo(FPVQLFPVQL))	> 100 µg/mL	> 100 µg/mL	> 100 µg/mL	> 100 µg/mL	10 µg/mL (≈ 8.55 µM)	> 100 µg/mL	–
CC(C)C[C@@H]1NC(=O)[C@H](CCC(N)=O)NC(=O)[C@H](C(C)C)NC(=O)[C@@H]2CCCN2C(=O)[C@H](Cc2ccccc2)NC(=O)[C@H](C(C)C)NC(=O)[C@H](CCC(N)=O)NC(=O)[C@H](C(C)C)NC(=O)[C@@H]2CCCN2C(=O)[C@H](Cc2ccccc2)NC1=O (cyclo(FPVQLFPVQV))	> 100 µg/mL	> 100 µg/mL	> 100 µg/mL	> 100 µg/mL	10 µg/mL (≈ 8.65 µM)	> 100 µg/mL	–
CC(C)[C@@H]1NC(=O)[C@H](CCC(N)=O)NC(=O)[C@H](C(C)C)NC(=O)[C@@H]2CCCN2C(=O)[C@H](Cc2ccccc2)NC(=O)[C@H](C(C)C)NC(=O)[C@H](CCC(N)=O)NC(=O)[C@H](C(C)C)NC(=O)[C@@H]2CCCN2C(=O)[C@H](Cc2ccccc2)NC1=O (cyclo(FPVQVFPVQV))	> 100 µg/mL	> 100 µg/mL	> 100 µg/mL	> 100 µg/mL	> 100 µg/mL	> 100 µg/mL	–
CC(C)C[C@@H]1NC(=O)[C@@H]2CCCN2C(=O)[C@H](Cc2ccccc2)NC(=O)[C@H](C(C)C)NC(=O)[C@H](CCC(N)=O)NC(=O)[C@H](C(C)C)NC(=O)[C@@H]2CCCN2C(=O)[C@H](Cc2ccccc2)NC(=O)[C@H](C(C)C)NC(=O)[C@H](CCC(N)=O)NC1=O (stereo in doubt; form 1)	> 100 µg/mL	> 100 µg/mL	> 100 µg/mL	> 100 µg/mL	–	> 100 µg/mL	>100 µg/mL
CC(C)C[C@@H]1NC(=O)[C@@H]2CCCN2C(=O)[C@H](Cc2ccccc2)NC(=O)[C@H](C(C)C)NC(=O)[C@H](CCC(N)=O)NC(=O)[C@H](C(C)C)NC(=O)[C@@H]2CCCN2C(=O)[C@H](Cc2ccccc2)NC(=O)[C@H](C(C)C)NC(=O)[C@H](CCC(N)=O)NC1=O (stereo in doubt; form 2)	–	–	–	–	–	–	10 µg/mL (≈ 8.65 µM)
